# In ChEMBL document CHEMBL1201862, “PubChem BioAssay data set” (2004):
#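 48-hour exposure; five concentrations; linearly interpolated endpoints. GI50 is the concentration that inhibits growth by half.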 Calls of active or inactive are those of the source. Rule as the data show it: active = GI50 up to about 1.1 µM and inactive = higher.
# Columns and labels:
# Experiment in all cases: NCI tumour cell line growth inhibition, 48 h
# CAKI-1 = test system: CAKI-1
# HCT-15 = test system: HCT-15
# SNB-19 = test system: SNB-19
# HCC 2998 = test system: HCC 2998
# U-251 = test system: U-251
# Malme-3M = test system: Malme-3M
# OVCAR-3 = test system: OVCAR-3
# HOP-62 = test system: HOP-62
# SK-MEL-2 = test system: SK-MEL-2
# UACC-62 = test system: UACC-62
# M14 = test system: M14
# DMS-114 = test system: DMS-114
# RXF 631 = test system: RXF 631
# SK-OV-3 = test system: SK-OV-3
# SF-539 = test system: SF-539
# TK-10 = test system: TK-10
# DMS-273 = test system: DMS-273
# SW-620 = test system: SW-620
# MOLT-4 = test system: MOLT-4
# HT-29 = test system: HT-29
# HOP-92 = test system: HOP-92
# OVCAR-5 = test system: OVCAR-5
# CCRF-CEM = test system: CCRF-CEM
# ACHN = test system: ACHN
# RPMI-8226 = test system: RPMI-8226
# RXF 393 = test system: RXF 393
# SF-268 = test system: SF-268
# NCI-H460 = test system: NCI-H460
# HCT-116 = test system: HCT-116
# OVCAR-4 = test system: OVCAR-4
# A498 = test system: A498
# SK-MEL-28 = test system: SK-MEL-28
# K562 = test system: K562
# SF-295 = test system: SF-295
# UACC-257 = test system: UACC-257
# LXFL 529 = test system: LXFL 529
# A549 = test system: A549
# KM-20L2 = test system: KM-20L2
# SNB-75 = test system: SNB-75
# SN12C = test system: SN12C
# UO-31 = test system: UO-31
# NCI-H226 = test system: NCI-H226
# COLO 205 = test system: COLO 205
# KM12 = test system: KM12
# LOX IMVI = test system: LOX IMVI
# DLD-1 = test system: DLD-1
# M19-MEL = test system: M19-MEL
# EKVX = test system: EKVX
# NCI-H522 = test system: NCI-H522
# IGROV-1 = test system: IGROV-1
# SK-MEL-5 = test system: SK-MEL-5
# OVCAR-8 = test system: OVCAR-8
# 786-0 = test system: 786-0
# NCI-H23 = test system: NCI-H23
# SNB-78 = test system: SNB-78
# HL-60 = test system: HL-60
# XF498 = test system: XF498
# SR = test system: SR
structure (smiles),measurement,setting,value
CNC(=O)NCCCC(NC(C)=O)C(=O)NCc1ccccc1 (stereo unspecified),GI50,CAKI-1,> 100 µM (inactive)
same,GI50,HCT-15,> 100 µM
same,GI50,SNB-19,> 100 µM (inactive)
same,GI50,HCC 2998,> 100 µM (inactive)
same,GI50,U-251,> 100 µM (inactive)
same,GI50,Malme-3M,> 100 µM (inactive)
same,GI50,OVCAR-3,> 100 µM (inactive)
same,GI50,HOP-62,> 100 µM (inactive)
same,GI50,SK-MEL-2,> 100 µM (inactive)
same,GI50,UACC-62,> 100 µM (inactive)
same,GI50,M14,> 100 µM (inactive)
same,GI50,DMS-114,> 100 µM (inactive)
same,GI50,RXF 631,> 100 µM (inactive)
same,GI50,SK-OV-3,> 100 µM (inactive)
same,GI50,SF-539,> 100 µM (inactive)
same,GI50,TK-10,> 100 µM (inactive)
same,GI50,DMS-273,> 100 µM (inactive)
same,GI50,SW-620,> 100 µM (inactive)
same,GI50,MOLT-4,> 100 µM (inactive)
same,GI50,HT-29,> 100 µM (inactive)
same,GI50,HOP-92,92.9 µM (inactive)
same,GI50,OVCAR-5,> 100 µM (inactive)
same,GI50,CCRF-CEM,> 100 µM (inactive)
same,GI50,ACHN,> 100 µM (inactive)
same,GI50,RPMI-8226,> 100 µM (inactive)
same,GI50,RXF 393,> 100 µM (inactive)
same,GI50,SF-268,> 100 µM (inactive)
same,GI50,NCI-H460,> 100 µM (inactive)
same,GI50,HCT-116,> 100 µM (inactive)
same,GI50,OVCAR-4,> 100 µM (inactive)
same,GI50,A498,> 100 µM (inactive)
same,GI50,SK-MEL-28,> 100 µM (inactive)
same,GI50,K562,> 100 µM (inactive)
same,GI50,SF-295,> 100 µM (inactive)
same,GI50,UACC-257,> 100 µM (inactive)
same,GI50,LXFL 529,> 100 µM (inactive)
same,GI50,A549,> 100 µM (inactive)
same,GI50,KM-20L2,> 100 µM (inactive)
same,GI50,SNB-75,42.2 µM (inactive)
same,GI50,SN12C,> 100 µM (inactive)
same,GI50,UO-31,> 100 µM (inactive)
same,GI50,NCI-H226,> 100 µM (inactive)
same,GI50,COLO 205,> 100 µM (inactive)
same,GI50,KM12,> 100 µM (inactive)
same,GI50,LOX IMVI,> 100 µM (inactive)
same,GI50,DLD-1,> 100 µM (inactive)
same,GI50,M19-MEL,> 100 µM (inactive)
same,GI50,EKVX,> 100 µM (inactive)
same,GI50,NCI-H522,> 100 µM (inactive)
same,GI50,IGROV-1,> 100 µM (inactive)
same,GI50,SK-MEL-5,> 100 µM (inactive)
same,GI50,OVCAR-8,> 100 µM (inactive)
same,GI50,786-0,> 100 µM (inactive)
same,GI50,NCI-H23,> 100 µM (inactive)
same,GI50,SNB-78,> 100 µM (inactive)
COc1ccc(OCC(=O)O)c2c1CCCC2=O,GI50,HCT-15,> 100 µM
same,GI50,SNB-19,> 100 µM (inactive)
same,GI50,HCC 2998,> 100 µM (inactive)
same,GI50,U-251,> 100 µM (inactive)
same,GI50,Malme-3M,> 100 µM (inactive)
same,GI50,OVCAR-3,> 100 µM (inactive)
same,GI50,HOP-62,> 100 µM (inactive)
same,GI50,SK-MEL-2,> 100 µM (inactive)
same,GI50,UACC-62,81.3 µM (inactive)
same,GI50,M14,> 100 µM (inactive)
same,GI50,DMS-114,> 100 µM (inactive)
same,GI50,RXF 631,> 100 µM (inactive)
same,GI50,SK-OV-3,> 100 µM (inactive)
same,GI50,SF-539,> 100 µM (inactive)
same,GI50,TK-10,> 100 µM (inactive)
same,GI50,DMS-273,> 100 µM (inactive)
same,GI50,SW-620,> 100 µM (inactive)
same,GI50,HL-60,> 100 µM (inactive)
same,GI50,MOLT-4,> 100 µM (inactive)
same,GI50,HT-29,> 100 µM (inactive)
same,GI50,HOP-92,> 100 µM (inactive)
same,GI50,OVCAR-5,> 100 µM (inactive)
same,GI50,CCRF-CEM,> 100 µM (inactive)
same,GI50,ACHN,> 100 µM (inactive)
same,GI50,RPMI-8226,> 100 µM (inactive)
same,GI50,RXF 393,> 100 µM (inactive)
same,GI50,SF-268,> 100 µM (inactive)
same,GI50,NCI-H460,> 100 µM (inactive)
same,GI50,HCT-116,> 100 µM (inactive)
same,GI50,OVCAR-4,> 100 µM (inactive)
same,GI50,A498,> 100 µM (inactive)
same,GI50,SK-MEL-28,> 100 µM (inactive)
same,GI50,K562,> 100 µM (inactive)
same,GI50,SF-295,> 100 µM (inactive)
same,GI50,UACC-257,> 100 µM (inactive)
same,GI50,LXFL 529,> 100 µM (inactive)
same,GI50,A549,> 100 µM (inactive)
same,GI50,SNB-75,62.8 µM (inactive)
same,GI50,SN12C,> 100 µM (inactive)
same,GI50,UO-31,> 100 µM (inactive)
same,GI50,NCI-H226,64.6 µM (inactive)
same,GI50,XF498,3.52 µM (inactive)
same,GI50,COLO 205,> 100 µM (inactive)
same,GI50,KM12,> 100 µM (inactive)
same,GI50,LOX IMVI,> 100 µM (inactive)
same,GI50,DLD-1,> 100 µM (inactive)
same,GI50,M19-MEL,> 100 µM (inactive)
same,GI50,EKVX,> 100 µM (inactive)
same,GI50,SR,> 100 µM (inactive)
same,GI50,NCI-H522,> 100 µM (inactive)
same,GI50,IGROV-1,> 100 µM (inactive)
same,GI50,SK-MEL-5,> 100 µM (inactive)
same,GI50,OVCAR-8,> 100 µM (inactive)
same,GI50,786-0,> 100 µM (inactive)
same,GI50,NCI-H23,> 100 µM (inactive)
same,GI50,SNB-78,> 100 µM (inactive)
CCCCCC(=O)Cc1cc(OC)cc2c1C(=O)Oc1cc(O)c(C(=O)O)c(CC(=O)CCCCC)c1O2,GI50,CAKI-1,> 100 µM (inactive)
same,GI50,HCC 2998,48.5 µM (inactive)
same,GI50,U-251,15.8 µM (inactive)
same,GI50,Malme-3M,51.4 µM (inactive)
same,GI50,OVCAR-3,24 µM (inactive)
same,GI50,HOP-62,> 100 µM (inactive)
same,GI50,UACC-62,20.6 µM (inactive)
same,GI50,M14,63.2 µM (inactive)
same,GI50,DMS-114,33.9 µM (inactive)
same,GI50,RXF 631,35.6 µM (inactive)
same,GI50,SK-OV-3,46.9 µM (inactive)
same,GI50,SF-539,> 10 µM (inactive)
same,GI50,TK-10,63.4 µM (inactive)
same,GI50,DMS-273,32.1 µM (inactive)
same,GI50,SW-620,> 100 µM (inactive)
same,GI50,HL-60,38.9 µM (inactive)
same,GI50,MOLT-4,27.2 µM (inactive)
same,GI50,HT-29,41.2 µM (inactive)
same,GI50,OVCAR-5,> 100 µM (inactive)
same,GI50,CCRF-CEM,40.7 µM (inactive)
same,GI50,ACHN,35.7 µM (inactive)
same,GI50,RPMI-8226,42 µM (inactive)
same,GI50,SF-268,35.2 µM (inactive)
same,GI50,NCI-H460,52.5 µM (inactive)
same,GI50,HCT-116,26 µM (inactive)
same,GI50,A498,39 µM (inactive)
same,GI50,K562,30.6 µM (inactive)
same,GI50,SF-295,55.3 µM (inactive)
same,GI50,UACC-257,71.4 µM (inactive)
same,GI50,LXFL 529,55.5 µM (inactive)
same,GI50,A549,43.2 µM (inactive)
same,GI50,KM-20L2,49.4 µM (inactive)
same,GI50,SNB-75,55.7 µM (inactive)
same,GI50,SN12C,> 10 µM (inactive)
same,GI50,NCI-H226,> 100 µM (inactive)
same,GI50,XF498,> 100 µM (inactive)
same,GI50,COLO 205,45 µM (inactive)
same,GI50,KM12,46.5 µM (inactive)
same,GI50,LOX IMVI,77.8 µM (inactive)
same,GI50,DLD-1,35.6 µM (inactive)
same,GI50,M19-MEL,26.2 µM (inactive)
same,GI50,EKVX,33.1 µM (inactive)
same,GI50,SR,52.6 µM (inactive)
same,GI50,NCI-H522,46.3 µM (inactive)
same,GI50,IGROV-1,39.4 µM (inactive)
same,GI50,SK-MEL-5,> 100 µM (inactive)
same,GI50,OVCAR-8,47.1 µM (inactive)
same,GI50,786-0,18.9 µM (inactive)
same,GI50,NCI-H23,19.2 µM (inactive)
same,GI50,SNB-78,44.4 µM (inactive)
